Broadly, the inhibition is how much of the control response was suppressed. The low end stands for a response near the control, the high end for a response far below the control. In general, IC50 refers to the midpoint of a concentration-inhibition curve.

The values that follow come from paper PMC10663516 (Scientific Reports, 2023).

In series [1] the test system is ST949B/ABC. The series can be described thus: DLBCL PDX model. Format: in vivo, mouse. The note with it: 9 days, QD PO, TL-895 and ibrutinib 25 mg/kg, acalabrutinib 30 mg/kg. As to the method:
(§1) All three compounds were formulated in a solution of 20% kleptose (hydroxypropyl β-cyclodextrin) in 50 mM citrate and administered QD PO during the treatment periods given for each model.
For mean values > 0: %ΔT/ΔC=endtumorvolumetreatment-starttumorvolumetreatment/endtumorvolumecontrol-starttumorvolumecontrol×100
For mean values ≤ 0 (i.e. regression): %ΔT/ΔC=endtumorvolumetreatment-starttumorvolumetreatment/starttumorvolumecontrol×100
The research use of patient material in PDX models at Crown Bioscience, XenoSTART and EPO-GmbH was approved by the local Institutional Ethical Review Boards and the patients provided written informed consent. Molecular analysis was performed on samples from each model using the EdgeSeq DLBCL Cell of Origin Assay (HTG Molecular Diagnostics, Tucson, AZ, USA) to confirm ABC-GCB DLBCL subtype.
Stock mice inoculated with human DLBCL cancer tissues were euthanized by progressive hypoxemia with CO2 and tumors were harvested. Tumor fragments were used at three different contract research organizations for xenotransplantation into different mouse strains for the following models: (1) 6-week-old female nude (NMRI:nu/nu) or CB17-SCID mice (Javier Labs, France): Ly12638, Ly11212, and Ly13005 (Experimental Pharmacology and Oncology Berlin-Buch GmbH [EPO-GmbH], Germany); (2) 6–8-week-old female BALB/c nude or NOD SCID mice (Beijing HFK Bioscience Co., Ltd. Beijing, China): LY0257, LY2214, LY3604, LY2298, LY2264, LY2318, and LY2345 (Crown Bioscience Inc, Taicang, China); and (3) 6–12-week-old female CB-17 SCID mice (CB17/Icr-Prkdc^scid/IcrIcoCrl Charles River Laboratories, Wilmington, MA, USA): ST118B, ST949B, ST359, ST949, ST2761B, ST2963, ST1361, ST2078, ST1735B, ST2902, and ST3497 (XenoSTART, San Antonio, TX, USA).
When the average tumor volume was within a pre-determined range (100–300 mm^3), mice were assigned to treatment groups to balance the mean starting tumor volumes (n = 5 for all models except LY13005, which was n = 3). […] Tumor volumes were recorded 2–3 times per week. Mean %∆T/∆C was calculated at the end of treatment as described above for MCL models.
(§2) Tumor volume was used as the measure of efficacy for statistical analyses of in vivo xenograft studies. Tumor volume data from individual studies were log-transformed and statistically analyzed using repeated measures analysis of covariance (RM-ANCOVA) to determine significant treatment effects, followed by post hoc Tukey’s test for multiple pairwise comparisons (all α = 0.05) using R software. Day 0 data were used only as covariates in the analyses because tumor measurements on that day were recorded before the first treatments were administered.

In series [2] the test system is DLBCL. The note with it: cited from earlier work.
The conditions of series [3]: cited from earlier work.
Series [4] has as its system Daudi cells. The series can be described thus: Rituximab-induced ADCC, NK cell-driven lysis (Calcein-AM release). Format: cell-based, human. The following applies: 3 µg/mL rituximab, primary NK cells, 4 h; TL-895 0.1–10 µM, ibrutinib and acalabrutinib 0.3–30 µM. The text has this: ADCC analysis was based on quantitation of Calcein-AM release by […] detection on a FLUOstar® Omega (BMG LABTECH).

Series [5] deals with primary CLL blasts. Kind of series: Growth inhibition of primary CLL blasts (Mosaic Spot Assay). Format: cell-based. The note with it: Homo sapiens, 96 h, 4 days. The text has this: A cytotoxic dose of cisplatin acted as a positive control, with no drug treatment as a negative control.
The test system of series [6] is Jeko-1. The series can be described thus: Cell line-derived xenograft model of MCL. It counts as in vivo, mouse. The following applies: Jeko-1 xenograft, nude mice, 25 mg/kg QD PO, 20 days. As to the method: All three compounds were formulated in a solution of 20% kleptose (hydroxypropyl β-cyclodextrin) in 50 mM citrate and administered QD PO during the treatment periods given for each model. […] Studies in the Jeko-1 mouse MCL model were performed at EMD Serono Research and Development Institute, Billerica, MA, USA. Six-to-eight-week old female nude mice (Crl:NU-Foxn1nu; Charles River Laboratories, Wilmington) were inoculated with Jeko-1 cells (obtained from ATCC) by s.c. injection (10 × 10^6 cells in 0.2 mL phosphate buffered saline with Matrigel). […] Tumor volumes were recorded twice weekly. Mean %∆T/∆C was calculated at the end of treatment as outlined above. Tumor volume was used as the measure of efficacy for statistical analyses of in vivo xenograft studies. Tumor volume data from individual studies were log-transformed and statistically analyzed using repeated measures analysis of covariance (RM-ANCOVA) to determine significant treatment effects, followed by post hoc Tukey’s test for multiple pairwise comparisons (all α = 0.05) using R software. Day 0 data were used only as covariates in the analyses because tumor measurements on that day were recorded before the first treatments were administered.

Series [7] concerns Mino. Kind of series: Cell line-derived xenograft model of MCL. The note with it: SCID mice, 25 mg/kg QD PO, 27 days.
Series [8] deals with Granta519. The series can be described thus: Cell line-derived xenograft model of MCL. Format: in vivo, mouse. The note with it: SCID mice, 25 mg/kg QD PO, 14 days. As to the method: as §1
(§3) Maver-1, Granta519, and Mino mouse MCL studies were performed at Shanghai ChemPartner Co., Ltd, Shanghai, China. Five-to-six-week old female severe combined immune deficiency (SCID) mice (Vital River Lab Animal Technology Co., Ltd, Beijing, China) were inoculated with Maver-1, Granta519, or Mino cells (all obtained from ATCC) by subcutaneous (s.c.) injection (0.2 mL containing 5 × 10^7 cells/mL in a 1:1 suspension of medium:Matrigel).
(§4) […]. Tumor volumes were recorded three times per week. Tumor growth inhibition was expressed as the mean percentage treatment (T)/control (C) ratio [%∆T/∆C] and was calculated at the end of treatment.
as §2

Series [9] concerns Maver-1. The series can be described thus: Cell line-derived xenograft model of MCL. The following applies: Maver-1 xenograft, SCID mice, 25 mg/kg QD PO, 14 days. It counts as in vivo, mouse. How it is done: as §1, §3, §4, §2

SMILES strings stand for the structures. Read-outs that look alike come from different tables or passages of the source.

Turning to `CC#CC(=O)N1CCC[C@H]1c1nc(-c2ccc(C(=O)Nc3ccccn3)cc2)c2c(N)nccn12` [Acalabrutinib], the “%ΔT/ΔC” value in series [1] came out at 103%. In [2] (patients with either ABC- or GCB-DLBCL), the “Combined overall response rate (ORR)” value was 24%. Moreover, the Exposure in series [3] (MCL, acalabrutinib oral 100 mg BID) is 1111 ng·h/mL. Also, the “Inhibition of the ADCC mechanism of rituximab” value (shortened to “Inhibition … of rituximab”) in series [4] is “neither TL-895 (0.1–10 µM) nor acalabrutinib (0.3–30 µM) inhibited the ADCC mechanism of rituximab at the lower, more clinically relevant, concentrations”. Further, in series [5], the inhibition at 0.008 µM is 34%, 0.04 µM produced 40% inhibition, testing at 0.2 µM gave an inhibition of 47% and the inhibition at 1 µM was 56%. In series [5], this compound had an inhibition at 5 µM of 64%, an inhibition at 25 µM of 80% and an IC50 of around 200 nM.
In the case of `C=CC(=O)N1CCC(F)(CNc2ncnc(N)c2-c2ccc(Oc3ccccc3)cc2)CC1` [TL-895], the “%ΔT/ΔC” value in series [1] is given as 39%. The “Tumor growth vs vehicle” value in series [6] is “Neither TL-895 nor ibrutinib had any significant effects on tumor growth”. Also, the “Tumor growth vs vehicle” value in series [7] was “significantly inhibited tumor growth”. Further, the “Complete responses in patients with DLBCL” value in series [2] (preliminary evidence) is on record as 1. The “Inhibition … of rituximab” value in [4] is on record as “neither TL-895 (0.1–10 µM) nor acalabrutinib (0.3–30 µM) inhibited the ADCC mechanism of rituximab at the lower, more clinically relevant, concentrations”. Besides, the “Tumor growth vs vehicle” value in series [8] is “Neither TL-895 nor ibrutinib had any significant effects on tumor growth”. For the same compound, in series [9], the “Tumor growth vs vehicle” value is recorded as “Neither TL-895 nor ibrutinib had any significant effects on tumor growth”. Further, in series [5], the inhibition at 0.008 µM amounted to 43%, testing at 0.04 µM gave an inhibition of 50%, the inhibition at 0.2 µM worked out at 53% and 1 µM produced 61% inhibition. Moreover, in series [5], at 5 µM the inhibition was 72%, 25 µM produced 90% inhibition and the IC50 was around 200 nM.
With `C=CC(=O)N1CCC[C@@H](n2nc(-c3ccc(Oc4ccccc4)cc3)c3c(N)ncnc32)C1` [Ibrutinib], the “Tumor growth vs vehicle” value was “Neither TL-895 nor ibrutinib had any significant effects on tumor growth” in series [6]; “Significant treatment effects were observed for TL-895 and ibrutinib versus vehicle” in series [7]; “Neither TL-895 nor ibrutinib had any significant effects on tumor growth” in series [8]; “Neither TL-895 nor ibrutinib had any significant effects on tumor growth” in series [9]. Also, the ORR is 90% in [2] (combined with R-ICE, patients with GCB-DLBCL) and 31% in series [2] (patients with wild type CD79B ABC-DLBCL). Besides, the Reported response rate in series [2] (patients with ABC-DLBCL) is reported as 37%; in [2] (patients with GCB-DLBLC), 5%. In addition, in series [3] (patients with MCL, ibrutinib 560 mg QD), the “Area under the curve (AUC)” value was 956 ng·h/mL. In addition, the “Inhibition … of rituximab” value in series [4] was “ADCC was inhibited by ibrutinib (0.3–30 µM) in a concentration-dependent manner”.
